Results on 2 molecules are retold here after patent US8288423B2, “FXa inhibitors with cyclic amidines as P4 subunit, processes for their preparations, and pharmaceutical compositions and derivatives thereof” (Legochem Bioscience Ltd., priority 2007, dated 2012).

One data set concerns Citrated plasma. The data set is described as follows: Measurement of PT (prothrombin time) in citrated plasma. Format: biochemical. The conditions noted are these: STA-Neoplastine, 37° C., unit not given (2×PT value). As to the method: The effect of oxazolidinone derivatives with cyclic amidines represented by Chemical Formula (1) according to the invention on blood coagulation was compared by measuring PT (prothrombin time) and aPTT (activated Partial Thromboplastin Time). The procedure of measurement is described below. Citrated plasma was purchased from Daejeon-Chungnam Blood Institute (located at Daejeon, Korea). A compound solution (5 μL) according to the invention (in a various concentration gradient, 5% DMSO solution) was added to the plasma ([…]), and the reaction was carried out at 37° C. for 5 minutes. STA-Neoplastine (Diagnostica Stago) (100 μL) was then added thereto, and the duration for plasma coagulation was measured. The duration for plasma coagulation is determined as the point when the absorbance at 340 nm reaches 0.1.

Another data set deals with thrombus formation. The data set is described as follows: % inhibition against thrombus formation, arteriovenous shunt model in white rats. Format: in vivo, white rats (male Sprague Dawley). Further details: concentration or dose not given beside the values. The conditions noted are these: orally administered 1 hour before opening of the shunt; 15 minutes circulation; versus control group. As for the experimental part:
3) Determination of % Inhibition Against Thrombus Formation by Means of Arteriovenous Shunt Model ([…]) in White Rats Antithrombotic effect of the compounds according to the present invention was evaluated by using arteriovenous shunt model in white rats. The animals used were male Sprague Dawleys with the body weight of 200-250 g. For one day before the experiment, the animals were fasted. Five to six animals were used for each test group. The compound of Example was orally administered 1 hour before opening of the shunt. The rats were anesthetized by abdominal administration of Rompun (Bay HealthCare) and Chloral hydrate or urethane in an amount of 12 and 50 mg per kg of the body weight. Into the left carotid artery and right jugular vein of the white rat, a polyethylene(PE)-60 tubing filled with physiological saline was inserted and secured. Both ends of individual PE tubing were connected to a silicone tubing having a length of 5 cm in which a cotton thread have been incorporated diagonally, and the shunt was open to provide circulation for 15 minutes. The shunt was then compressed by using jaws, and the cotton thread was carefully removed and the thrombus generated was weighed. The % inhibition of thrombus formation was calculated by using the weight of thrombus obtained from white rats of the control group to which a solution of oral administration was administered.

For data set [1] the following is noted: background art; cited from earlier work.
In the next data set the test system is plasma protein. In words: Determination of plasma protein binding (ultrafiltration, LC-MS/MS). The conditions noted are these: citrated plasma, 37° C., 60 minutes, Ultracel-10 filter. It counts as in vitro ADME. As for the experimental part: Citrated plasma was purchased from Daejeon-Chungnam Blood Institute (located at Daejeon, Korea). A compound solution (500 μM in DMSO) (10 μL), according to the invention Was added to the plasma (1 mL), and the reaction was carried out at 37° C. and 120 rpm for 60 minutes. To three wells of Ultracel-10 filter plate (Millipore), the reaction solution was transferred (300 μL each). Then, the plasma solution (70 μL) was taken, and the total concentration of the compound was quantified by means of LC-MS/MS (API3000, ABI). After centrifuging the Ultracel-10 filter plate at 37° C. and 2000×g for 45 minutes, the filtrate was taken to determine the concentration of the compound which was not bound to the plasma protein. Percentage of plasma protein binding was obtained via Equation (2): % Protein binding=(1−concentration of compound in filtrate/concentration of compound in entire solution)×100% Free=100−% Protein binding [Equation 2]

The nature of data set [2]: Determination of aqueous solubility. It counts as physicochemical. The conditions noted are these: aqueous with cosolvent or surfactant or cyclodextrin, kinetic from dmso stock; 100 mM potassium phosphate buffer pH 7.4, 5% DMSO, final concentration 500 μM, ambient temperature 90 minutes. As for the experimental part:
The plate was agitated at ambient temperature for 90 minutes with a rate of 225 rpm. After agitation, the content of the plate was filtered with application of pressure. The filtrate (160 μL) was individually transferred to a uv-96 well plate (Costar), and mixed with 40 μL of acetonitrile, and then agitated at ambient temperature for 10 minutes with a rate of 225 rpm. By means of a plate reader (Molecular Devices, Spectramax 190), absorbances at the wavelengths of 280, 300, 320, 340, 360 and 800 nm were measured. As a reference solution, employed was 100 mM potassium phosphate buffer (pH 7.4) containing 20% acetonitrile added by 10 mM DMSO solution (8 μL).

The test system of the next data set is plasma. The data set is described as follows: Measurement of aPTT (activated partial thromboplastin time) in plasma. It counts as biochemical. The conditions noted are these: STA-PTT, CaCl2, 37° C., unit not given. Further details: unit not given here. As for the experimental part: The effect of oxazolidinone derivatives with cyclic amidines represented by Chemical Formula (1) according to the invention on blood coagulation was compared by measuring PT (prothrombin time) and aPTT (activated Partial Thromboplastin Time). The procedure of measurement is described below. A solution (5 μL) of the oxazolidinone derivative with cyclic amidine group represented by Chemical Formula (1) according to the invention (in a various concentration gradient, 5% DMSO solution) was added to the plasma ([…]), and the reaction was carried out at 37° C. for 2 minutes. STA-PTT (Diagnostica Stago) (50 μL) was then added thereto. After the reaction at 37° C. for additional 5 minutes, 25 mM CaCl2 (50 μL) was added thereto, and the duration for plasma coagulation was measured. The duration for plasma coagulation was determined as the point when the absorbance at 340 nm reaches 0.1.

For the next data set, the target named is T1, factor Xa (Homo sapiens, UniProt P00742).
T1 construct: purchased Enzyme Research Laboratories
T1 sequence (P00742 235-488 limits assumed): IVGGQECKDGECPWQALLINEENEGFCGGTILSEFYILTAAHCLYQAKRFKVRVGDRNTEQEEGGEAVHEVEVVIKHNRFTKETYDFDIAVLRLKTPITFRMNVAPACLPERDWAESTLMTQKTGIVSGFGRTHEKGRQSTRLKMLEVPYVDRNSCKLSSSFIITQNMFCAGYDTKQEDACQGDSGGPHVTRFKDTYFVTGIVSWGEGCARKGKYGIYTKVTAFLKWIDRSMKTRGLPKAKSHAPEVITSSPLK
T1 sequence (P00742 41-179 partner limits assumed): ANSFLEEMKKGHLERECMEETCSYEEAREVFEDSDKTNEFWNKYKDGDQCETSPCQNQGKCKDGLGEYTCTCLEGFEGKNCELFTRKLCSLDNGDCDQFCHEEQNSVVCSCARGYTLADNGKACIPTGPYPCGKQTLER
The conditions noted are these: background art; cited from earlier work.

Values after ≈ are worked out from the molar mass of the structure shown.

In turn, `O=C(NC[C@H]1CN(c2ccc(N3CCOCC3=O)cc2)C(=O)O1)c1ccc(Cl)s1` [Rivaroxaban, reference compound] came in with a PT in the data set on Citrated plasma of 0.09. Besides, the “% Inhibition (of thrombus formation)” value in the data set with thrombus formation is 83%. In data set [1], the solubility result is given as “about 8 mg/L”. In the data set with plasma protein, the “Plasma protein binding (% Free)” value stood at 9 % Free. This molecule also displayed a solubility at 90 min in data set [2] of 50 µM (≈ 21.8 µg/mL). For the same molecule, in the data set on plasma, the APTT came out at 0.39.

B1: antistasin (protein, UniProt P15358 18-136, looked up)
Antistasin: QGPFGPGCEEAGCPEGSACNIITDRCTCSGVRCRMHCPHGFQRSRYGCEFCKCRLEPMKATCDISECPEGMMCSRLTNKCDCKIDINCRKTCPNGLKRDKLGCEYCECRPKRKLIPRLS
On to B1, for which, in the data set with factor Xa, the Ki is 0.05 nM.

As a reminder, the solubility is the dissolved amount per volume that the medium holds. What is called Ki is the equilibrium dissociation constant of an inhibitor or competing ligand from its target.
